Test results as given in patent publication US20120003151A1, “METHOD FOR EARLY IMAGING OF ATHEROSCLEROSIS” (priority 2009, published 2012).

Key:
folate receptor [1] = target: T1, folate receptor (Mus musculus, UniProt Q05685); assay: Autoradiography and histology of aortas after EC20-99mTc injection; assay type: in vivo, mice; set-up: from tissue; host or cells: atherosclerotic aortas / aorto-cardiac region of living apoE-/- mice (lesion macrophages)
Method: In order to image areas of accumulation of EC20-^99mTc in atherosclerotic aortas, apoE−/− mice on a normal or Western diet were injected with EC20-^99mTc, euthanized, and thoracic aortas were excised. […] For cross sections, aortic roots and arches were cut and embedded in Tissue-Tek® O.C.T.™ mounting medium and frozen in liquid nitrogen. Serial sections were cut with a Leica CM1800 cryostat and placed on polylysine coated microscope slides (Thermo Scientific). Either whole aortas or aortic arch cross sections (40 μm) were exposed to a phosphor screen for 18 hours at 4° C. The phosphor screen was read using a Typhoon phosphorimager (GE Healthcare) at a resolution of 50 microns. Aortic tissue sections (10 m thick) adjacent to those used for autoradiography were also used for histology. H&E staining was performed to visualize lesion morphology. H&E staining of the sections was performed as follows.
The slides were fixed for 10 minutes in zinc-buffered formalin. The slides were washed with distilled water. The slides were immersed in Gills-3 hematoxylin for 5 minutes. The slides were rinsed in distilled water and dipped twice in acidic ethanol. The slides were rinsed for 30 seconds with distilled water and for 3 minutes in tap water. The slides were transferred to alcoholic Eosin Y for 20 seconds. The slides were rinsed with water and dehydrated in 2 changes of 95% ethanol, 2 changes of 100% ethanol, and 2 changes of xylenes (3 minutes per change). Coverslips were mounted using Permount™ mounting medium and allowed to dry overnight. Slides were visualized with a light microscope (4× objective). In some cases, the percentage of lumen occlusion was analyzed using ImageJ software (National Institutes of Health).
Staining with the macrophage-specific monoclonal antibody (Mac-3/CD107b; eBioscience Inc.) was performed as follows. Aortic arch sections were fixed with zinc-buffered formalin for 10 min, and endogenous biotin and peroxidase activity were blocked. Sections were incubated with anti-mouse CD107b antibody (1:50 dilution) for 1 h, and after washing, incubated with goat anti-rat biotinylated antibody (KPL Protein Research Products) at a 1:500 dilution for 30 min. After washing, streptavidin-HRP (BD Pharmingen) was added for an additional 30 min. Slides were developed with diaminobenzidine substrate (BD Pharmingen) according to manufacturer's instructions. Negative control consisted of slides developed in the absence of primary antibody. An Olympus BH-2 microscope coupled with a CCD camera was used to obtain light photomicrographs. […]

FR+ macrophages = assay: EC20-99mTc imaging after macrophage depletion with clodronate liposomes; assay type: in vivo; settings: apoE-/- mice, 8 weeks Western diet, 4 mg clodronate/dose i.p. daily for 5 days
Method: PBS- and clodronate liposomes were synthesized as described (Buiting et al., J. Immunol. Methods, 1996, 192(1-2): 55-62; incorporated herein by reference). 86 mg egg phosphatidylcholine +8 mg cholesterol were dissolved in 1:1 chloroform:methanol. Solvent was evaporated using a rotoevaporator for 15 min, and the resulting film was rehydrated with PBS or a 0.6 M solution of clodronate (Sigma) in PBS for 2 hours. Resulting multi-lamellar vesicles were sonicated for 3 min and allowed to swell for 2 hours at 25° C. Liposomes were washed 3× with PBS by centrifugation at 100,000×g for 30 min and resuspended in 4 mL PBS. Liposomes were extruded 5× through both a 400 nm and 200 nm pore-size polycarbonate filter and stored at 4° C. until use. The resulting liposomes consisted of 7:1.3 molar ratio egg phosphatidylcholine:cholesterol, respectively. The efficiency of clodronate entrapment using this method was 7.8%.
For systemic elimination of macrophages, apoE−/− mice were fed a Western diet for a period of 8 weeks, after which 200 μL of PBS- or clodronate-liposomes (4 mg clodronate/dose) were injected i.p. daily for 5 days. After treatment, mice were injected i.p. with EC20-^99mTc and imaged, as described above.

folate receptor [2] = target: T1, folate receptor; assay: Radioimaging (gamma scintigraphy, ROI analysis) of EC20-99mTc in ApoE-/- mice; assay type: in vivo; set-up: from tissue; host or cells: atherosclerotic aortas / aorto-cardiac region of living apoE-/- mice (lesion macrophages)
Method: (§1) EC20-^99mTc was prepared as described (Leamon et al., Bioconjug Chem, 2002, 13(6): 1200-10; incorporated herein by reference). Vials containing lyophilized EC20 were heated at 100° C. for 5 min, after which two mL of a 925 MBq/mL solution of sodium pertechnetate (Cardinal Health) was added and the vial was heated for an additional 15 min. After dilution with the desired volume of saline, mice were injected i.p. with either 400 μL of imaging agent (18.5 MBq, ˜250 nmoles/Kg of EC20) or the same volume of imaging agent supplemented with 100-fold molar excess of free folic acid (to compete for unoccupied folate receptors). Unbound EC20-^99mTc was allowed to clear from the tissues for a period of four hours prior to imaging.

folate receptor [3] = target: T1, folate receptor
Method: as §1
To analyze the accumulation of EC20-^99mTc in mouse aortas and heart tissues, mice were euthanized and thoracic aortas excised. Radioactivities were counted for 2 min using a gamma-counter (Packard). Results are reported as % ID/g tissue.
In order to assess whether EC20-^99mTc is in fact targeting these regions of enhanced atherosclerosis, thoracic aortas and hearts were dissected, and accumulation of EC20-^99mTc in the resected tissues was quantitated by gamma counting.

T1 sequence (Q05685 21-227): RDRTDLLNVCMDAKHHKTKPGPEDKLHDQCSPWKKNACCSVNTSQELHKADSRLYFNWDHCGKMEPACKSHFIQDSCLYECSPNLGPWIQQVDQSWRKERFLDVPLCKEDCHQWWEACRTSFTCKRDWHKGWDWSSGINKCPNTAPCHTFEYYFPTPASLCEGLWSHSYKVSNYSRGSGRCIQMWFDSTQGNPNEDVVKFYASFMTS

Structure (SMILES)	detectability of EC20 uptake in small, early, active atherosclerotic plaques (folate receptor [1]; ApoE-/- mice, Western Diet 0, 2, 12 or 26 weeks, H&E plaque size)	reduction of EC20-99mTc uptake by clodronate-liposome treatment relative to PBS-containing liposomes (FR+ macrophages)	signal intensity after pre-injection of 100-fold excess free folic acid (folate receptor [2]; apoE-/- mice on Western diet, 25 weeks, folic acid competition)	average increase in EC20-99mTc signal intensity in the aorto-cardiac region, Western diet compared to normal rodent chow (folate receptor [2]; apoE-/- mice, 25 weeks on diet, i.p., imaged after 4 h clearance)	radioactivity in the aortic root and arch with 100-fold greater dose of free folic acid (folate receptor [1]; apoE-/- mice on Western diet, autoradiography)	correspondence of areas of high macrophage content and lesion formation with loci of elevated 99mTc emission (folate receptor [1]; apoE-/- mice, 25 weeks Western chow, serial sections: H&E, Mac-3, autoradiography)	uptake in the aortic root and arch by autoradiography, Western diet versus normal diet (folate receptor [1]; apoE-/- mice, whole aortas, phosphorimager)	decrease of EC20-99mTc retention in the aortas by competition with excess folic acid (folate receptor [3]; apoE-/- mice on Western diet, compared to non-competed controls)	accumulation in the aortas, higher on Western chow than normal diet (folate receptor [3]; apoE-/- mice, 25 weeks on diet, gamma counting)	EC20-99mTc uptake in hearts relative to aortas (folate receptor [3]; mouse, in vivo)
Nc1nc2ncc(CNc3ccc(C(=O)N[C@H](CCC(=O)NC[C@H](N)C(=O)N[C@@H](CC(=O)O)C(=O)N[C@@H](CS)C(=O)O)C(=O)O)cc3)nc2c(=O)[nH]1 [EC20]	detectable									
Nc1nc2ncc(CNc3ccc(C(=O)N[C@H](CCC(=O)NC[C@H](N)C(=O)N[C@@H](CC(=O)O)C(=O)N[C@@H](CS)C(=O)O)C(=O)O)cc3)nc2c(=O)[nH]1 [EC20-^99mTc, metal not drawn]		65%	reduced to near background levels	~70%	significantly reduced	invariably corresponded	significantly greater uptake	41%	~120%	threefold lower
